In patent US8378098B2, “Imidazol[1,2-α]quinoxalines and derivatives for the treatment of cancers” (Universite de Montpellier I, priority 2007, dated 2013):
Like-named read-outs stand apart in the source and are kept apart here.

Tests used:
A375 melanoma = assay: in vitro cytotoxicity (antiproliferative activity) on A375 melanoma line; format: cell-based, human; conditions: for activity compared with EAPB0203: A375, comparing IC50 values of Table 3
Source text: Antiproliferative activity was first measured on a cancer cell line of human origin, A375 melanoma.
Imiquimod and fotemustine (Muphoran®) are used as controls in this study.
(§1) Several human carcinoma cell lines were used: • Lines A375, M4Be, RPMI7591 from human melanoma. • Line LS174T from colon carcinoma. • Line A 2780 from ovarian carcinoma. • The Raji line from B lymphoma. • Line MCF7 from breast carcinoma.
IC50 (concentration of the product tested which inhibits 50% of the maximum cell proliferation observed in the control wells) is determined graphically from the curve of the percentage of cell proliferation as a function of concentration of the product tested.

in vivo = conditions: rat
Protocol: (§2) Methods of assaying compounds EAPB0203, EAPB0503 and EAPB0603 by high performance liquid chromatography and detection by mass spectrometry (LC/ESI-MS) were developed and validated in human and rat plasmas. Pre-treatment of the samples consists of a liquid solid extraction preceded by precipitation of plasma proteins in acid medium. The chromatographic column used is C8 Zorbax eclipse XDB and the mobile phase (gradient) a mixture of acetonitrile and formate buffer (pH 3) (flow rate, 0.8 ml/min). The […] from 92 to 113%. The extraction coefficients are higher than 72%. The quantification limit is 5 μg/l for all analytes. Stability tests of the compounds in the matrices were also carried out. These methods were used to determine the pharmacokinetic parameters of compounds EAPB0203, EAPB0503 and EAPB0603 in the rat. The lethal doses 50% of compounds EAPB0203 and EAPB0503 are respectively 14.8 and 7.6 mg/kg.

[1] = lethal doses 50% reported in the pharmacokinetic study; format: in vivo; conditions: species and route not stated in the sentence (rat study)
Protocol: as §2

LS174T (colon cancer) = assay: in vitro cytotoxicity on LS174T colon cancer line; format: cell-based; conditions: Homo sapiens, Table 2, unit inferred
Source text: as §1

MCF7 (breast cancer) = assay: in vitro cytotoxicity on MCF7 breast cancer line; format: cell-based; conditions: Homo sapiens, Table 2, unit inferred
Source text: as §1

M4Be human melanoma = assay: anti-proliferative activity in vivo, M4Be human melanoma xenografted in athymic mice; conditions: 20 mg/kg once per week i.p.; sacrifice at tumour volume 2 cm^3
Protocol: FIG. 1: Effects of fotemustine (20 mg/kg once per week for 3 weeks) and EAPB0203 (20 mg/kg twice per week for 3 weeks) on tumour growth in athymic Swiss mice xenografted with M4Be human melanoma cell line.
Δ, control; ▪, EAPB0203; ●, fotemustine. The data are the results of only one experiment carried out on six mice per group. The results are represented as mean±SEM.
In this study, data are presented relating to the activity of EAPB0203 on the volume of a type of human melanoma tumour model (M4Be lines), xenografted in athymic mice. This study required as a preliminary step several tests of grafts of human melanoma cell lines in athymic mice before establishing the adequate animal model. The in vivo study was performed following the in vitro experiments described previously.
The activity and specificity of EAPB0203 in vivo on tumour growth of human melanoma are evaluated by monitoring tumour development in mice carrying M4Be melanoma treated by administration of fotemustine and EAPB0203 at various doses.
For this study, 18 Swiss nude mice (3 groups of 6 mice) were used. M4Be cancer cells in suspension were injected subcutaneously into the right flank of each athymic Swiss nude female 7-week-old mouse weighing 20-22 g at the beginning of the protocol. The mice were then maintained in a sterile atmosphere and received aseptic food and water. The weight of the mouse and the growth of the tumour in three dimensions were recorded twice a week.
A first group of 6 mice (reference) will receive fotemustine by intra-peritoneal route at a dose of 20 mg/kg once per week for 3 weeks, beginning 7 days after inoculation at the time when the tumour will be visible and palpable. A second group of 6 mice will receive EAPB0203 at the same dose of 20 mg/kg via intra-peritoneal route but twice per week (40 mg/kg per week). The third group (control) of 6 mice will receive only the administration carrier. Tumour volume is calculated by the following formula: length X width X height X 0.52, and is expressed as mean±SEM mm^3.
For fotemustine and EAPB0203, the sequence of administrations is a treatment of three weeks, then two weeks without treatment, and then a second treatment of three weeks.

M4Be (melanoma) = assay: in vitro cytotoxicity on M4Be melanoma line; format: cell-based; conditions: Homo sapiens, read-out: IC50 M4Be
Source text: as §1

RPMI7591 (melanoma) = assay: in vitro cytotoxicity on RPMI7591 melanoma line; format: cell-based; conditions: Homo sapiens, read-out: IC50 RPMI7591
Source text: as §1

Raji (B lymphoma) = assay: in vitro cytotoxicity on Raji B lymphoma line; format: cell-based, human; conditions: Table 2, unit inferred
Source text: as §1

[2] = Homo sapiens, A-375, A375, Table 3, read-out: IC50
[3] = Homo sapiens, A-375, A375 melanoma line, Table 1, IC50 and standard deviation, read-out: IC50
[4] = A375, comparison of IC50 values

Compound `CNc1nc2ccccc2n2c(-c3ccccc3)cnc12` [EAPB0403, N-methyl-1-phenylimidazo[1,2-a]quinoxalin-4-amine] has an IC50 (A375 melanoma; [2]) of 2.19 ± 0.08 µM.

For `CNc1nc2ccccc2n2c(-c3cccc(OC)c3)cnc12` [EAPB0503, 1-(3-methoxyphenyl)-N-methylimidazo[1,2-a]quinoxalin-4-amine], the Vd (in vivo; iv, 5 mg/kg) was 5.6 L/kg, the “area under the curve of plasma concentrations” value (in vivo; iv, 5 mg/kg) was 2310 ng·h/mL and the clearance (in vivo; iv, 5 mg/kg) was 36.7 mL/min/kg. For the same compound, the half-life (in vivo; iv, 5 mg/kg) was 1.76 h, the “activity compared with EAPB0203” value (A375 melanoma) was “higher than that of EAPB0203” and the IC50 (A375 melanoma; [2]) was 0.18 ± 0.09 µM. The “lethal doses 50%” value [1] was 7.6 mg/kg.

For `CCc1c2c(nc3ccc(OC(=O)N4CCC(N5CCCCC5)CC4)cc13)-c1cc3c(c(=O)n1C2)COC(=O)[C@]3(O)CC` [Irinotecan, irinotecan], the IC50 (LS174T (colon cancer)) was 1.16 ± 0.07 µM.

With `COc1nc2ccccc2n2c(CCc3ccccc3)cnc12` [EAPB0206, 4-Methoxy-1-(2-phenylethyl)imidazo[1,2-a]quinoxaline] the IC50 (A375 melanoma; [3]) was 47.8 ± 5 µM.

For `CNc1nc2ccccc2n2c(-c3cccc(Br)c3)cnc12` [EAPB01003, 1-(3-bromophenyl)-N-methylimidazo[1,2-a]quinoxalin-4-amine], the “activity compared with EAPB0203” value (A375 melanoma) was “higher than that of EAPB0203” and the IC50 (A375 melanoma; [2]) was 0.65 ± 0.02 µM.

For `COc1cccc2c1C(=O)c1c(O)c3c(c(O)c1C2=O)C[C@@](O)(C(=O)CO)C[C@@H]3O[C@H]1C[C@H](N)[C@H](O)[C@H](C)O1` [Doxorubicine, doxorubicin], the IC50 (MCF7 (breast cancer)) was 0.13 ± 0.01 µM.

With `CCOP(=O)(OCC)C(C)NC(=O)N(CCCl)N=O` (stereo not drawn) [Fotemustine, fotemustine, reference compound] the “day on which the last mice were euthanatized” value (M4Be human melanoma) was 76 days, the IC50 (A375 melanoma; Homo sapiens, A-375, read-out: IC50 A375) was 173 ± 24 µM and the IC50 (M4Be (melanoma)) was 326 ± 34 µM. It also gave an IC50 (RPMI7591 (melanoma)) of 125 ± 49 µM.

For `CNc1nc2ccccc2n2c(-c3ccc(OC)cc3)cnc12` [EAPB0703, 1-(4-methoxyphenyl)-N-methylimidazo[1,2-a]quinoxalin-4-amine], the “activity compared with EAPB0203” value (A375 melanoma) was “higher than that of EAPB0203” and the IC50 (A375 melanoma; [2]) was 0.37 ± 0.4 µM.

Compound `CNc1nc2ccccc2n2c(-c3cccc(C#N)c3)cnc12` [EAPB01503, 1-(3-cyanophenyl)-N-methylimidazo[1,2-a]quinoxalin-4-amine] has an IC50 (A375 melanoma; [2]) of 27 ± 2.2 µM.

With `CC(C)Cn1cnc2c(N)nc3ccccc3c21` [Imiquimod, imiquimod] the IC50 (LS174T (colon cancer)) was 34.4 ± 9.7 µM, the IC50 (MCF7 (breast cancer)) was 145 ± 7 µM and the IC50 (A375 melanoma; Homo sapiens, A-375, Table 2, unit inferred, read-out: IC50 A375) was 70.3 ± 4.3 µM. For the same compound, the IC50 (Raji (B lymphoma); Homo sapiens, Raji) was 139 ± 12 µM, the IC50 (M4Be (melanoma); Table 2, unit inferred) was 33.5 ± 7.7 µM and the IC50 (RPMI7591 (melanoma); Table 2, unit inferred) was 53.7 ± 9.8 µM.

`CC(C)Cc1cnc2c(N(C)C)nc3ccccc3n12` [EAPB0104, 1-Isobutyl-N,N-dimethylimidazo[1,2-a]quinoxalin-4-amine] showed an IC50 (A375 melanoma; [3]) of 66.3 ± 7.5 µM.

With `CNc1nc2ccccc2n2cc(-c3cccc(OC)c3)nc12` [N-methyl-2-(3-methoxyphenyl)imidazo[1,2-a]quinoxalin-4-amine] the “activity times higher than EAPB0203” value (A375 melanoma; A375) was 100 times, the “activity times higher than that of EAPB0503” value (A375 melanoma; A375) was 10 times and the IC50 (A375 melanoma; Homo sapiens, A-375, melanoma (A375), text b219, read-out: IC50) was 0.018 µM.

For `CCOc1cccc(-c2cnc3c(NC)nc4ccccc4n23)c1` [EAPB0903, 1-(3-ethoxyphenyl)-N-methylimidazo[1,2-a]quinoxalin-4-amine], the “activity compared with EAPB0203” value (A375 melanoma) was “higher than that of EAPB0203” and the IC50 (A375 melanoma; [2]) was 0.3 ± 0.01 µM.

With `CNc1nc2ccccc2n2c(-c3cccc(F)c3)cnc12` [EAPB01403, 1-(3-fluorophenyl)-N-methylimidazo[1,2-a]quinoxalin-4-amine] the IC50 (A375 melanoma; [2]) was 24.9 ± 0.27 µM.

In the case of `CNc1nc2ccccc2n2c(-c3cccc(O)c3)cnc12` [EAPB0603, 1-(3-hydroxyphenyl)-N-methylimidazo[1,2-a]quinoxalin-4-amine], the metabolic relation (in vivo) is reported as “active metabolite of EAPB0503”, the “elimination half-life (metabolite)” value (in vivo; iv, 5 mg/kg) is reported as 4.7 h and the “activity compared with EAPB0203” value (A375 melanoma) is reported as “higher than that of EAPB0203”. The IC50 (A375 melanoma; [2]) was 0.56 ± 0.12 µM.

For `CNc1nc2ccccc2n2c(-c3cccc(C(=O)O)c3)cnc12` [EAPB01303, 1-(3-carboxyphenyl)-N-methylimidazo[1,2-a]quinoxalin-4-amine], the IC50 (A375 melanoma; [2]) was 3.47 ± 0.55 µM.

Work on `CNc1nc2ccccc2n2c(-c3ccccc3OC)cnc12` [EAPB0803, 1-(2-methoxyphenyl)-N-methylimidazo[1,2-a]quinoxalin-4-amine] yielded an IC50 (A375 melanoma; [2]) of 122 ± 25 µM.

For `Nc1nc2ccccc2n2c(CCc3ccccc3)cnc12` [EAPB0202, 1-(2-phenylethyl)imidazo[1,2-a]quinoxalin-4-amine], the “activity times higher than that of fotemustine” value (A375 melanoma; [4]) was 70 times, the “activity times higher than that of imiquimod” value (A375 melanoma; [4]) was 30 times and the “times more active than EAPB0204” value (A375 melanoma; [4]) was roughly 2 times. The IC50 (A375 melanoma; [3]) was 2.35 µM.

In the case of `Clc1nc2ccccc2n2c(CCc3ccccc3)cnc12` [EAPB0201, 4-Chloro-1-(2-phenylethyl)imidazo[1,2-a]quinoxaline], the IC50 (A375 melanoma; [3]) is reported as 24 ± 0.5 µM.

`CNc1nc2ccccc2n2c(-c3cccc(Cl)c3)cnc12` [EAPB01203, 1-(3-chlorophenyl)-N-methylimidazo[1,2-a]quinoxalin-4-amine] showed an IC50 (A375 melanoma; [2]) of 1.78 ± 0.35 µM.

`CNc1nc2ccccc2n2c(-c3cccc(C(F)(F)F)c3)cnc12` [EAPB01103] gave an IC50 (A375 melanoma; A375, Table 3, read-out: IC50) of 1.28 ± 0.18 µM.

In the case of “1-furan-N-methylimidazo[1,2-a]quinoxalin-4-amine [EAPB01703]”, the IC50 (A375 melanoma; A375, Table 3, read-out: IC50) is reported as 74.1 ± 3.1 µM.

For `CN(C)c1nc2ccccc2n2c(CCc3ccccc3)cnc12` [EAPB0204, N,N-Dimethyl-1-(2-phenylethyl)imidazo[1,2-a]quinoxalin-4-amine], the IC50 (A375 melanoma; [3]) was 80.1 ± 7 µM.

`CNc1nc2ccccc2n2c(-c3cccc([N+](=O)[O-])c3)cnc12` [EAPB01603, 1-(3-nitrophenyl)-N-methylimidazo[1,2-a]quinoxalin-4-amine] showed an IC50 (A375 melanoma; [2]) of 40 ± 3.9 µM.

`CN(Cc1cnc2nc(N)nc(N)c2n1)c1ccc(C(=O)N[C@@H](CCC(=O)O)C(=O)O)cc1` [Methothrexate, methothrexate] gave an IC50 (Raji (B lymphoma)) of 0.04 ± 0.005 µM.

Compound `CNc1nc2ccccc2n2c(CC(C)C)cnc12` [EAPB0103, 1-Isobutyl-N-methylimidazo[1,2-a]quinoxalin-4-amine] has an IC50 (A375 melanoma; [3]) of 31.6 ± 2 µM.
